According to PubChem BioAssay (NCI):
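Five concentrations, 48 hours, 96-well plates. Abbreviation: GI50, concentration required for 50% inhibition of growth. Definition used: TGI = concentration required for complete inhibition of growth.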

Key:
Experiment in all cases: NCI-60 cell line screen, 48 h
[1] = tested on: HL-60(TB) leukemia
[2] = tested on: A549 NSCLC
[3] = tested on: MOLT-4 leukemia
[4] = tested on: IGROV1 ovarian
[5] = tested on: SNB-19 CNS
[6] = tested on: PC-3 prostate
[7] = tested on: MCF7 breast
[8] = tested on: M14 melanoma
[9] = tested on: UACC-62 melanoma
[10] = tested on: SK-MEL-5 melanoma
[11] = tested on: U251 CNS
[12] = tested on: NCI-H23 lung
[13] = tested on: NCI-H460 lung
[14] = tested on: RPMI-8226 leukemia
[15] = tested on: HCT-15 colon
[16] = tested on: EKVX NSCLC
[17] = tested on: UACC-257 melanoma
[18] = tested on: OVCAR-3 ovarian
[19] = tested on: TK-10 renal
[20] = tested on: SK-OV-3 ovarian
[21] = tested on: OVCAR-5 ovarian
[22] = tested on: HCC-2998 colon
[23] = tested on: HOP-92 NSCLC
[24] = tested on: SF-539 CNS
[25] = tested on: MDA-MB-435
[26] = tested on: HT29 colon
[27] = tested on: K-562 leukemia
[28] = tested on: SK-MEL-28 melanoma
[29] = tested on: SK-MEL-2 melanoma
[30] = tested on: OVCAR-4 ovarian
[31] = tested on: SW-620 colon
[32] = tested on: SR leukemia
[33] = tested on: NCI-H226 lung
[34] = tested on: UO-31 renal
[35] = tested on: RXF 393 renal
[36] = tested on: BT-549 breast
[37] = tested on: NCI-H522 lung
[38] = tested on: HS 578T breast
[39] = tested on: CAKI-1 renal
[40] = tested on: MDA-MB-231 breast
[41] = tested on: SF-295 CNS
[42] = tested on: A498 renal
[43] = tested on: KM12 colon
[44] = tested on: OVCAR-8 ovarian
[45] = tested on: T-47D breast
[46] = tested on: MALME-3M melanoma
[47] = tested on: CCRF-CEM leukemia
[48] = tested on: SNB-75 CNS
[49] = tested on: NCI/ADR-RES ovarian
[50] = tested on: COLO 205 colon
[51] = tested on: LOX IMVI melanoma
[52] = tested on: 786-0 renal
[53] = tested on: SF-268 CNS
[54] = tested on: HOP-62 NSCLC
[55] = tested on: ACHN renal
[56] = tested on: DU-145 prostate
[57] = tested on: HCT-116 colon
[58] = tested on: SN12C renal

## CSc1n[nH]c2c1c(C)nn2-c1ccccc1
[1]
  TGI: > 100 µM
[2]
  TGI: > 100 µM
[3]
  TGI: > 100 µM
[4]
  TGI: > 100 µM
[5]
  TGI: > 100 µM
[6]
  TGI: > 100 µM
[7]
  TGI: > 100 µM
[8]
  TGI: > 100 µM
[9]
  TGI: > 100 µM
[10]
  TGI: > 100 µM
[11]
  TGI: > 100 µM
[12]
  TGI: > 100 µM
[13]
  TGI: > 100 µM
[14]
  TGI: > 100 µM
[15]
  TGI: > 100 µM
[16]
  TGI: > 100 µM
[17]
  TGI: > 100 µM
[18]
  TGI: > 100 µM
[19]
  TGI: > 100 µM
[20]
  TGI: > 100 µM
[21]
  TGI: > 100 µM
[22]
  TGI: > 100 µM
[23]
  TGI: > 100 µM
[24]
  TGI: > 100 µM
[25]
  TGI: > 100 µM
[26]
  TGI: > 100 µM
[27]
  TGI: > 100 µM
[28]
  TGI: > 100 µM
[29]
  TGI: > 100 µM
[30]
  TGI: > 100 µM
[31]
  TGI: > 100 µM
[32]
  TGI: > 100 µM
[33]
  TGI: > 100 µM
[34]
  TGI: > 100 µM
[35]
  TGI: > 100 µM
[36]
  TGI: > 100 µM

## CC/C=C\C[C@H](O)C/C=C1/C(=O)C=C[C@@H]1C/C=C\CCCC(=O)OCCS(=O)(=O)c1ccccc1
[37]
  GI50: 1.76 µM
  TGI: 4.13 µM
[1]
  GI50: 2.84 µM
  TGI: 12.3 µM
[2]
  GI50: 6.04 µM
  TGI: 25.8 µM
[3]
  GI50: 2.83 µM
  TGI: 13.4 µM
[38]
  GI50: 23.9 µM
  TGI: > 100 µM
[39]
  GI50: 3.86 µM
  TGI: 13.7 µM
[4]
  GI50: 6.26 µM
  TGI: 23.3 µM
[5]
  GI50: 5.06 µM
  TGI: 19.4 µM
[40]
  GI50: 5.34 µM
  TGI: 20.7 µM
[6]
  GI50: 3.83 µM
  TGI: 10.9 µM
[7]
  GI50: 2.39 µM
  TGI: 18.6 µM
[8]
  GI50: 3.67 µM
  TGI: 13.7 µM
[9]
  GI50: 2.48 µM
  TGI: 6.29 µM
[41]
  GI50: 3.74 µM
  TGI: 14.1 µM
[10]
  GI50: 1.99 µM
  TGI: 4.06 µM
[11]
  GI50: 3.35 µM
  TGI: 12.5 µM
[42]
  GI50: 19.1 µM
  TGI: 35.5 µM
[12]
  GI50: 2.82 µM
  TGI: 10.6 µM
[13]
  GI50: 2.53 µM
  TGI: 6.35 µM
[14]
  GI50: 2.7 µM
  TGI: 8.25 µM
[15]
  GI50: 2.84 µM
  TGI: 11.4 µM
[16]
  GI50: 12.2 µM
  TGI: 30.5 µM
[43]
  GI50: 2.09 µM
  TGI: 6.05 µM
[44]
  GI50: 4.07 µM
  TGI: 15.3 µM
[17]
  GI50: 4.54 µM
  TGI: 17.3 µM
[45]
  GI50: 3.76 µM
  TGI: 18.7 µM
[46]
  GI50: 6.71 µM
  TGI: 22.3 µM
[18]
  GI50: 3.19 µM
  TGI: 12 µM
[19]
  GI50: 5.58 µM
  TGI: 17.3 µM
[20]
  GI50: 6.38 µM
  TGI: 27.7 µM
[21]
  GI50: 12.4 µM
  TGI: 29.5 µM
[22]
  GI50: 1.99 µM
  TGI: 3.64 µM
[47]
  GI50: 2.44 µM
  TGI: 9.26 µM
[48]
  GI50: 17.2 µM
  TGI: 88.8 µM
[23]
  GI50: 6.87 µM
  TGI: 19.4 µM
[24]
  GI50: 4.68 µM
  TGI: 16.9 µM
[49]
  GI50: 3.43 µM
  TGI: 20.5 µM
[50]
  GI50: 2.85 µM
  TGI: 6.89 µM
[51]
  GI50: 1.44 µM
  TGI: 3.66 µM
[25]
  GI50: 2.51 µM
  TGI: 8.26 µM
[26]
  GI50: 3.29 µM
  TGI: 8.54 µM
[52]
  GI50: 3.22 µM
  TGI: 8.61 µM
[27]
  GI50: 3.04 µM
  TGI: 63.8 µM
[28]
  GI50: 2.72 µM
  TGI: 8.02 µM
[29]
  GI50: 4.14 µM
  TGI: 17.9 µM
[53]
  GI50: 4.37 µM
  TGI: 22.9 µM
[54]
  GI50: 3.47 µM
  TGI: 10.5 µM
[55]
  GI50: 3.17 µM
  TGI: 10.3 µM
[30]
  GI50: 4.05 µM
  TGI: 16.9 µM
[31]
  GI50: 4.07 µM
  TGI: 14.9 µM
[32]
  GI50: 2.87 µM
  TGI: 13.2 µM
[56]
  GI50: 5.24 µM
  TGI: 17.8 µM
[57]
  GI50: 2.35 µM
  TGI: 5.06 µM
[33]
  GI50: 2.69 µM
  TGI: 6.39 µM
[34]
  GI50: 2.37 µM
  TGI: 6.31 µM
[35]
  GI50: 2.75 µM
  TGI: 6.47 µM
[58]
  GI50: 3.62 µM
  TGI: 19.1 µM

## C=CC1CC12C(=O)C1OC2(C)C2C(=O)c3c(O)cccc3C(=O)C12 (configuration not stated)
[37]
  GI50: 39.8 µM
  TGI: > 100 µM
[1]
  GI50: 18.7 µM
  TGI: 46.9 µM
[2]
  GI50: 70 µM
  TGI: > 100 µM
[3]
  GI50: 23.6 µM
  TGI: > 100 µM
[38]
  GI50: 21.8 µM
  TGI: 88.3 µM
[39]
  GI50: 13.1 µM
  TGI: 31.8 µM
[5]
  GI50: 87.8 µM
  TGI: > 100 µM
[40]
  GI50: 18.7 µM
  TGI: 59 µM
[6]
  GI50: 25.7 µM
  TGI: 81.5 µM
[7]
  GI50: 23.2 µM
  TGI: 74.5 µM
[8]
  GI50: 54.9 µM
  TGI: > 100 µM
[11]
  GI50: 28.7 µM
  TGI: 77.7 µM
[12]
  GI50: 26.9 µM
  TGI: 85.6 µM
[13]
  GI50: 33.8 µM
  TGI: > 100 µM
[15]
  GI50: 19.1 µM
  TGI: 44.6 µM
[16]
  GI50: 56.9 µM
  TGI: > 100 µM
[43]
  GI50: 18 µM
  TGI: 66.3 µM
[44]
  GI50: 37.8 µM
  TGI: > 100 µM
[17]
  GI50: 33.3 µM
  TGI: > 100 µM
[45]
  GI50: 31.2 µM
  TGI: > 100 µM
[46]
  GI50: 17.1 µM
  TGI: 54.5 µM
[19]
  GI50: 39.7 µM
  TGI: > 100 µM
[20]
  GI50: 94.5 µM
  TGI: > 100 µM
[21]
  GI50: > 100 µM
  TGI: > 100 µM
[22]
  GI50: 31.1 µM
  TGI: > 100 µM
[47]
  GI50: 26 µM
  TGI: > 100 µM
[48]
  GI50: 72.4 µM
  TGI: > 100 µM
[23]
  GI50: 25.8 µM
  TGI: > 100 µM
[24]
  GI50: 41.6 µM
  TGI: > 100 µM
[49]
  GI50: 27.9 µM
  TGI: 84.1 µM
[50]
  GI50: 31.7 µM
  TGI: > 100 µM
[25]
  GI50: 21 µM
  TGI: 45.1 µM
[26]
  GI50: 33.9 µM
  TGI: > 100 µM
[52]
  GI50: 29.1 µM
  TGI: > 100 µM
[27]
  GI50: 29.6 µM
  TGI: 90.7 µM
[28]
  GI50: 29.1 µM
  TGI: > 100 µM
[29]
  GI50: 50 µM
  TGI: > 100 µM
[53]
  GI50: 30.5 µM
  TGI: > 100 µM
[54]
  GI50: > 100 µM
  TGI: > 100 µM
[55]
  GI50: 20.1 µM
  TGI: 46.6 µM
[57]
  GI50: 38.1 µM
  TGI: > 100 µM
[33]
  GI50: 45.6 µM
  TGI: > 100 µM
[34]
  GI50: > 100 µM
  TGI: > 100 µM
[35]
  GI50: 13.1 µM
  TGI: 41.1 µM
[58]
  GI50: 46.8 µM
  TGI: > 100 µM
[36]
  GI50: 53.4 µM
  TGI: > 100 µM
